Assay results taken from patent US4490370A, “Naphthylglycyl cephalosporin derivatives” (priority 1983, dated 1984).
Values after ≈ are worked out from the molar mass of the structure shown. Read-outs that look alike come from different tables or passages of the source.

Columns and labels:
Assay type in all cases: cell-based
Klebsiella = assay: Agar dilution MIC, Klebsiella; details: Klebsiella; Table I, strain X26; read-out: MIC
Source text: (§1) A typical and preferred compound provided by this invention is 7-(2-naphthylglycylamido)-3-methyl-3-cephem-4-carboxylic acid, the compound of Example 3. The antibacterial activity of this compound and several others of the invention has been determined in standard in vitro agar dilution assays against a variety of gram positive microorganisms. The following Tables present typical minimum inhibitory concentrations (MIC's) in μg/ml for the compounds when evaluated against the indicated microorganisms. MIC's for several known compounds are also presented for comparison.

Staph. aureus = assay: Agar dilution MIC, Staph. aureus; details: Staphylococcus aureus, read-out: MIC
Source text: (§2) The following Tables present typical minimum inhibitory concentrations (MIC's) in μg/ml for the compounds when evaluated against the indicated microorganisms.

Strep. A = assay: Agar dilution MIC, Strep. A; details: Table I, strain C203; read-out: MIC
Source text: as §1

Staph. epi = assay: Agar dilution MIC, Staph. epi; details: read-out: MIC
Source text: as §2

Strep. PN = assay: Agar dilution MIC, Strep. PN; details: Table I, strain PARK; read-out: MIC
Source text: as §2

H. influ. = assay: Agar dilution MIC, H. influenza; details: read-out: MIC
Source text: as §2

[1] = Table II expanded spectrum, strain EPI1

Row | SMILES | MIC (Staph. aureus; Table II, strain S224) | MIC (Staph. aureus; Table II, strain S225) | MIC (Staph. aureus; Table II, strain S226) | MIC (Staph. aureus; Table II, strain S227) | MIC (Staph. aureus; Table II, strain S228) | MIC (Staph. aureus; Table II, strain S229) | MIC (Staph. aureus; Table II, strain S230) | MIC (Staph. aureus; Table II, strain S231) | MIC (Staph. aureus; Table II, strain S234) | MIC (Staph. aureus; Table II, strain S237) | MIC (Staph. aureus; Table II, strain S238) | MIC (Staph. aureus; Table II, strain S239) | MIC (Staph. epi; [1]) | MIC (Staph. epi; Table II, strain 269) | MIC (Staph. epi; Table II, strain 270) | MIC (Staph. epi; Table II, strain 285) | MIC (Staph. epi; Table II, strain 286) | MIC (H. influ.; Table II, strain 76) | MIC (H. influ.; Table II, strain 1930) | MIC (H. influ.; Table II, strain C.L.) | other results
1 | CC1=C(C(=O)O)N2C(=O)C(NC(=O)[C@H](N)c3ccc4cc(Cl)ccc4c3)C2SC1 (stereo partly drawn) [Example 7, D-7-(6-chloronaphth-2-ylglycylamido)-3-methyl-3-cephem-4-carboxylic acid] | 0.5 µg/mL (≈ 1.16 µM) | 0.5 µg/mL (≈ 1.16 µM) | 1 µg/mL (≈ 2.32 µM) | 0.5 µg/mL (≈ 1.16 µM) | 0.5 µg/mL (≈ 1.16 µM) | 1 µg/mL (≈ 2.32 µM) | 0.5 µg/mL (≈ 1.16 µM) | 0.25 µg/mL (≈ 0.579 µM) | 1 µg/mL (≈ 2.32 µM) | 0.5 µg/mL (≈ 1.16 µM) | 1 µg/mL (≈ 2.32 µM) | 1 µg/mL (≈ 2.32 µM) | 8 µg/mL (≈ 18.5 µM) | 4 µg/mL (≈ 9.26 µM) | 4 µg/mL (≈ 9.26 µM) | 2 µg/mL (≈ 4.63 µM) | 1 µg/mL (≈ 2.32 µM) | 16 µg/mL (≈ 37 µM) | 16 µg/mL (≈ 37 µM) | 32 µg/mL (≈ 74.1 µM) | MIC (Klebsiella): 8 µg/mL (≈ 18.5 µM); MIC (Staph. aureus; Table I, strain V41): 8 µg/mL (≈ 18.5 µM); MIC (Staph. aureus; Table I, strain X1.1): 0.25 µg/mL (≈ 0.579 µM); MIC (Staph. aureus; Table I, strain X400): 64 µg/mL (≈ 148 µM); MIC (Strep. A): 0.06 µg/mL (≈ 0.139 µM); MIC (Staph. epi; Table I, strain 222): 0.5 µg/mL (≈ 1.16 µM); MIC (Staph. epi; Table I, strain EPI1): 4 µg/mL (≈ 9.26 µM); MIC (Strep. PN): 0.25 µg/mL (≈ 0.579 µM); MIC (H. influ.; Table I, strain BRUN): 32 µg/mL (≈ 74.1 µM); MIC (H. influ.; Table II, strain HESS): 32 µg/mL (≈ 74.1 µM); MIC (H. influ.; Table II, strain M366): > 64 µg/mL; MIC (H. influ.; Table II, strain R465): 32 µg/mL (≈ 74.1 µM); MIC (H. influ.; Table II, strain STEL): > 64 µg/mL
2 | COCC1=C(C(=O)O)N2C(=O)C(NC(=O)[C@H](N)c3ccc4ccccc4c3)C2SC1 (some centres unmarked) [Example 8, 7-(2-Naphthylglycylamido)-3-methoxymethyl-3-cephem-4-carboxylic acid] | 0.5 µg/mL (≈ 1.17 µM) | 0.5 µg/mL (≈ 1.17 µM) | 1 µg/mL (≈ 2.34 µM) | 0.5 µg/mL (≈ 1.17 µM) | 0.5 µg/mL (≈ 1.17 µM) | 1 µg/mL (≈ 2.34 µM) | 0.5 µg/mL (≈ 1.17 µM) | 0.5 µg/mL (≈ 1.17 µM) | 1 µg/mL (≈ 2.34 µM) | 0.5 µg/mL (≈ 1.17 µM) | 1 µg/mL (≈ 2.34 µM) | 1 µg/mL (≈ 2.34 µM) | 4 µg/mL (≈ 9.36 µM) | 2 µg/mL (≈ 4.68 µM) | 2 µg/mL (≈ 4.68 µM) | 1 µg/mL (≈ 2.34 µM) | 0.5 µg/mL (≈ 1.17 µM) | 8 µg/mL (≈ 18.7 µM) | 16 µg/mL (≈ 37.4 µM) | 8 µg/mL (≈ 18.7 µM) | MIC (Staph. epi; Table II, strain 219): 0.5 µg/mL (≈ 1.17 µM); MIC (H. influ.; Table II, strain 105): 8 µg/mL (≈ 18.7 µM); MIC (H. influ.; Table II, strain 158): 8 µg/mL (≈ 18.7 µM); MIC (H. influ.; Table II, strain 164): 8 µg/mL (≈ 18.7 µM); MIC (H. influ.; Table II, strain 169): 8 µg/mL (≈ 18.7 µM); MIC (H. influ.; Table II, strain 171): 8 µg/mL (≈ 18.7 µM); MIC (H. influ.; Table II, strain 312): 8 µg/mL (≈ 18.7 µM); MIC (H. influ.; Table II, strain 4842): 8 µg/mL (≈ 18.7 µM); MIC (H. influ.; Table II, strain HESS): 8 µg/mL (≈ 18.7 µM); MIC (H. influ.; Table II, strain M366): > 64 µg/mL; MIC (H. influ.; Table II, strain R465): 16 µg/mL (≈ 37.4 µM); MIC (H. influ.; Table II, strain STEL): > 64 µg/mL
